# Tests used:
# Type in all cases: in vivo
# Papaver rhoeas [1] = test: Greenhouse trial, post-emergence: PAPRH; settings: aminopyralid 10 g ai/ha solo
# Experimental: (§1) The test plants have been seeded, separately for each species, in plastic containers in sandy loamy soil containing 5% organic matter.
# (§2) For the post emergence treatment, the plants were first grown to the 2 leaf station (GS 12). Here, the herbicidal compositions were suspended or emulsified in water as distribution medium and sprayed using finely distributing nozzels.
# (§3) The plants have been cultivated due to there individual requirements at 10-25° C. and 20-35° C. The plants were irrigated due to there necessity. […]
# (§4) The evaluation for the damage on undesired weeds caused by the chemical compositions was carried out using a scale from 0 to 100%, compared to the untreated control plants. Here, 0 means no damage and 100 means complete destruction of the plants.
# (§5) Calculation of expected activity of binary mixtures was done by using the Colby-Formula according to Example 1.
# Lamium purpureum = test: Greenhouse trial, post-emergence: LAMPU; settings: for % activity 28 DAT: LAMPU
# Experimental: as §1, §2, §3, §4, §5
# Anthemis arvensis = test: Field trial Example 1, successive application: damage on ANTAR
# Description: (§6) Aminiopyralid was used as commercial aquaeous solution having an active ingredient concentration of 240 g/l (Milestone™). Metazachlor was used as a commercial suspension concentrate having an active ingredient concentration of 500 g/l (Butisan S®).
# (§7) The performance of aminopyralid applied as an alone treatment at 15, 30 and 50 g a.i./ha applied as an early post emergence treatment and an post emergence treatment in comparison to two different applications including metazachlor at 500 g a.i./ha as an early post emergence application in succession of aminopyralid as a post emergence application at 15 and 30 g a.i./ha was assessed in an oilseed rape field trials.
# (§8) The early post emergence treatment was applied by means of fine distributed nozzles at the growth stage (GS) of the crop BBCH 11-12.
# (§9) The post emergence treatment was applied by means of fine distributed nozzles at the growth stage (GS) of the crop BBCH 13-14.
# (§10) The test period extended over the autumn and spring season (205 days).
# (§11) In the following experiments, the herbicidal activity for the individual herbicide compounds (solo application) and of the herbicidal succession was assessed 4 times:
# as §4
# Galium aparine = test: Field trial Example 1, successive application: damage on GALAP
# Description: as §6, §7, §8, §9, §10, §11, §4
# Papaver rhoeas [2] = test: Field trial Example 2, combined application: PAPRH
# Experimental: as §6, §4
# The value E, which is to be expected if the activity of the individual compounds is just additive, was calculated using the method of S. R. Colby (1967) “Calculating synergistic and antagonistic responses of herbicide combinations”, Weeds 15, p. 22 ff.
# The performance of aminopyralid, applied as an alone treatment at […] and 15 g ai/ha, and the performance of metazachlor, applied as an alone treatment at 375 and 500 g ai/ha, as well as the mixtures of the both compounds have been assessed in winter oilseed rape field trials. The trials have been conducted in Germany at two locations.
# Post emergence treatment was applied by means of fine distributed nozzels at the growth stage (GS/BBCH 11/12).
# Mercurialis annua = test: Greenhouse trial, post-emergence: MERAN; settings: for % activity 28 DAT: MERAN
# Experimental: as §1, §2, §3, §4, §5
# Matricaria inodora = test: Field trial Example 1, successive application: damage on MATIN
# Description: as §6, §7, §8, §9, §10, §11, §4
# [3] = aminopyralid 5 g ai/ha solo, post-emergence (Table 10)
# [4] = aminopyralid 5 g ai/ha solo, post-emergence (Tables 7-9)
# [5] = aminopyralid 10 g ai/ha solo, post-emergence (Table 10)
# [6] = aminopyralid 10 g ai/ha solo, post-emergence (Tables 7-9)
# [7] = Lamium purpureum, post-emergence, 672 h, read-out: % activity 28 DAT, LAMPU
# [8] = 15 g ai/ha, treatment A early post emergence, DAT 25/DALT 10
# [9] = 15 g ai/ha, treatment A early post emergence, DAT 65/DALT 50
# [10] = 15 g ai/ha, treatment A early post emergence, DAT 176/DALT 161
# [11] = 15 g ai/ha, treatment B post emergence, DAT 25/DALT 10
# [12] = 15 g ai/ha, treatment B post emergence, DAT 65/DALT 50
# [13] = 15 g ai/ha, treatment B post emergence, DAT 176/DALT 161
# [14] = 30 g ai/ha, treatment A early post emergence, DAT 25/DALT 10
# [15] = 30 g ai/ha, treatment A early post emergence, DAT 65/DALT 50
# [16] = 30 g ai/ha, treatment A early post emergence, DAT 176/DALT 161
# [17] = 30 g ai/ha, treatment B post emergence, DAT 25/DALT 10
# [18] = 30 g ai/ha, treatment B post emergence, DAT 65/DALT 50
# [19] = 30 g ai/ha, treatment B post emergence, DAT 176/DALT 161
# [20] = 50 g ai/ha, treatment A early post emergence, DAT 25/DALT 10
# [21] = 50 g ai/ha, treatment A early post emergence, DAT 65/DALT 50
# [22] = 50 g ai/ha, treatment A early post emergence, DAT 176/DALT 161
# [23] = 50 g ai/ha, treatment B post emergence, DAT 25/DALT 10
# [24] = 50 g ai/ha, treatment B post emergence, DAT 65/DALT 50
# [25] = 50 g ai/ha, treatment B post emergence, DAT 176/DALT 161
# [26] = aminopyralid 15 g ai/ha, treatment A, DAT 205/DALT 190
# [27] = aminopyralid 15 g ai/ha, treatment B, DAT 205/DALT 190
# [28] = aminopyralid 30 g ai/ha, treatment A, DAT 205/DALT 190
# [29] = aminopyralid 30 g ai/ha, treatment B, DAT 205/DALT 190
# [30] = aminopyralid 50 g ai/ha, treatment A, DAT 205/DALT 190
# [31] = aminopyralid 50 g ai/ha, treatment B, DAT 205/DALT 190
compound,measurement,setting,value
"Nc1cc(Cl)nc(C(=O)O)c1Cl [aminopyralid, 4-amino-3,6-dichloropyridine-2-carboxylic acid]",% activity 28 DAT,Papaver rhoeas [1]; post-emergence (Table 10),95%
same,% activity 28 DAT,Papaver rhoeas [1]; post-emergence (Tables 7-9),35%
same,% activity 28 DAT,Lamium purpureum; [3],20%
same,% activity 28 DAT,Lamium purpureum; [4],30%
same,% activity 28 DAT,Lamium purpureum; [5],30%
same,% activity 28 DAT,Lamium purpureum; [6],65%
same,inhibition at 5 g/ha,Lamium purpureum; [7],20%
same,inhibition at 10 g/ha,Lamium purpureum; [7],30%
same,damage on ANTAR,Anthemis arvensis; [8],97%
same,damage on ANTAR,Anthemis arvensis; [9],96%
same,damage on ANTAR,Anthemis arvensis; [10],100%
same,damage on ANTAR,Anthemis arvensis; [11],87%
same,damage on ANTAR,Anthemis arvensis; [12],87%
same,damage on ANTAR,Anthemis arvensis; [13],98%
same,damage on ANTAR,Anthemis arvensis; [14],100%
same,damage on ANTAR,Anthemis arvensis; [15],98%
same,damage on ANTAR,Anthemis arvensis; [16],100%
same,damage on ANTAR,Anthemis arvensis; [17],82%
same,damage on ANTAR,Anthemis arvensis; [18],91%
same,damage on ANTAR,Anthemis arvensis; [19],100%
same,damage on ANTAR,Anthemis arvensis; [20],100%
same,damage on ANTAR,Anthemis arvensis; [21],100%
same,damage on ANTAR,Anthemis arvensis; [22],100%
same,damage on ANTAR,Anthemis arvensis; [23],93%
same,damage on ANTAR,Anthemis arvensis; [24],94%
same,damage on ANTAR,Anthemis arvensis; [25],98%
same,damage on ANTAR,Anthemis arvensis; [26],100%
same,damage on ANTAR,Anthemis arvensis; [27],100%
same,damage on ANTAR,Anthemis arvensis; [28],100%
same,damage on ANTAR,Anthemis arvensis; [29],100%
same,damage on ANTAR,Anthemis arvensis; [30],100%
same,damage on ANTAR,Anthemis arvensis; [31],100%
same,damage on GALAP,Galium aparine; [8],67%
same,damage on GALAP,Galium aparine; [9],77%
same,damage on GALAP,Galium aparine; [10],86%
same,damage on GALAP,Galium aparine; [11],72%
same,damage on GALAP,Galium aparine; [12],78%
same,damage on GALAP,Galium aparine; [13],82%
same,damage on GALAP,Galium aparine; [14],92%
same,damage on GALAP,Galium aparine; [15],96%
same,damage on GALAP,Galium aparine; [16],96%
same,damage on GALAP,Galium aparine; [17],72%
same,damage on GALAP,Galium aparine; [18],78%
same,damage on GALAP,Galium aparine; [19],86%
same,damage on GALAP,Galium aparine; [20],99%
same,damage on GALAP,Galium aparine; [21],99%
same,damage on GALAP,Galium aparine; [22],100%
same,damage on GALAP,Galium aparine; [23],87%
same,damage on GALAP,Galium aparine; [24],87%
same,damage on GALAP,Galium aparine; [25],89%
same,damage on GALAP,Galium aparine; [26],88%
same,damage on GALAP,Galium aparine; [27],87%
same,damage on GALAP,Galium aparine; [28],93%
same,damage on GALAP,Galium aparine; [29],91%
same,damage on GALAP,Galium aparine; [30],100%
same,damage on GALAP,Galium aparine; [31],93%
same,% activity,"Papaver rhoeas [2]; Aminopyralid 7.5 g ai/ha solo, 29 DAT",94%
same,% activity,"Papaver rhoeas [2]; Aminopyralid 7.5 g ai/ha solo, 72 DAT",88%
same,% activity,"Papaver rhoeas [2]; Aminopyralid 7.5 g ai/ha solo, 78 DAT",95%
same,% activity,"Papaver rhoeas [2]; Aminopyralid 15 g ai/ha solo, 28 DAT",92%
same,% activity,"Papaver rhoeas [2]; Aminopyralid 15 g ai/ha solo, 72 DAT",97%
same,% activity 28 DAT,Mercurialis annua; [3],70%
same,% activity 28 DAT,Mercurialis annua; [4],40%
same,% activity 28 DAT,Mercurialis annua; [5],90%
same,% activity 28 DAT,Mercurialis annua; [6],75%
same,inhibition at 10 g/ha,"Mercurialis annua; Mercurialis annua, post-emergence, 672 h, read-out: % activity 28 DAT, MERAN",90%
same,damage on MATIN,Matricaria inodora; [8],97%
same,damage on MATIN,Matricaria inodora; [9],96%
same,damage on MATIN,Matricaria inodora; [10],100%
same,damage on MATIN,Matricaria inodora; [11],88%
same,damage on MATIN,Matricaria inodora; [12],88%
same,damage on MATIN,Matricaria inodora; [13],98%
same,damage on MATIN,Matricaria inodora; [14],100%
same,damage on MATIN,Matricaria inodora; [15],98%
same,damage on MATIN,Matricaria inodora; [16],100%
same,damage on MATIN,Matricaria inodora; [17],82%
same,damage on MATIN,Matricaria inodora; [18],91%
same,damage on MATIN,Matricaria inodora; [19],100%
same,damage on MATIN,Matricaria inodora; [20],100%
same,damage on MATIN,Matricaria inodora; [21],100%
same,damage on MATIN,Matricaria inodora; [22],100%
same,damage on MATIN,Matricaria inodora; [23],88%
same,damage on MATIN,Matricaria inodora; [24],94%
same,damage on MATIN,Matricaria inodora; [25],98%
same,damage on MATIN,Matricaria inodora; [26],100%
same,damage on MATIN,Matricaria inodora; [27],100%
same,damage on MATIN,Matricaria inodora; [28],100%
same,damage on MATIN,Matricaria inodora; [29],100%
same,damage on MATIN,Matricaria inodora; [30],100%
same,damage on MATIN,Matricaria inodora; [31],100%
